In PMC11374660, “The novel family of Warbicin® compounds inhibits glucose uptake both in yeast and human cells and restrains cancer cell proliferation” (Frontiers in Oncology, 2024):

Assays:
yeast tps1Δ strain = assay: Growth (rescue) of the yeast tps1Δ strain on galactose with or without glucose; format: cell-based, S. cerevisiae; settings: 2.5 mM glucose
Description: Growth curves were made by measuring OD595 in a 96-well plate using the Multiskan™ FC Microplate Photometer (Thermo Fisher Scientific). Typically, for tps1Δ rescue experiments, cells were (pre)grown in Complete Synthetic medium containing 110 mM galactose. Compounds were always added 10 min prior to glucose addition to ensure maximal interaction between the cells and compounds. Cells originating from the preculture were harvested, washed in medium without sugar, after which they were resuspended to an OD of 0.1 in 200 µL of the appropriate medium. At least three technical replicates were included per condition. OD595 was measured at 30°C every 30 min with a 10-min shaking interval.

[1] = tested on: glucose uptake by tps1Δ yeast cells; assay: Zero-trans uptake of radioactive glucose in tps1Δ yeast cells; format: cell-based, S. cerevisiae; settings: tps1∆ cells, 2.5 mM glucose; read-out: IC50 values for 2.5 mM glucose uptake in tps1∆ cells
Description: (§1) Zero-trans uptake of radioactively labeled [U-^14C]glucose, [U-^14C]fructose or [U-^14C]galactose by S. cerevisiae cells was determined in accordance with previous studies ([45], [75]). Cells were grown on different carbon sources depending on the experiment. For measuring glucose uptake activity in the tps1Δ and tps1Δ hxtΔ strains, cells were grown on YP medium containing 325 mM glycerol (measurement of 10 s). Typically, for compound characterization and kinetic studies in wild type and tps1Δ strains, cells were (pre)grown on Complete Synthetic medium supplemented with 110 mM galactose (measurement of 10 s). In the experiments on the influence of hexokinase activity on the sugar uptake rate, the measurement duration was shortened to 5 s and cells were always grown on YP medium containing 325 mM glycerol and 430 mM ethanol. After harvesting, cells were washed twice with ice-cold 25 mM MES-buffer pH 6, and resuspended in their respective medium without sugar to a final concentration of 45 mg (wet weight)/mL. The amount of added tracer was estimated to give a response close to at least 1000 counts per min in order to adequately counter background noise. Cells were first preincubated for 10 min at 30°C with the compound to acclimate the cells to the temperature and to allow adequate interaction with the compound prior to uptake. Next, hexose sugar was mixed with the cell suspension, which was then incubated at 30°C for 5 or 10 s, depending on the experiment, after which the cells were rapidly filtered over a glass microfiber filter (Whatman GF/C) and washed three times with ice-cold dH2O. The loaded filter was transferred to a scintillation vial containing 3 mL liquid scintillation cocktail (Ultima-Flo M, Perkin Elmer) and counted using the Hidex 300 SL. Three blank measurements per strain were typically included to account for background signal, for which the cells were first quenched before adding the radioactive label.

[2] = tested on: A549 lung adenocarcinoma cells; assay: Proliferation of A549 lung adenocarcinoma cells; format: cell-based, human; settings: for Selected from primary screen for growth inhibition of A549 cells at 50 µM: RPMI 1 mM glucose; for Selected for having an IC50 ratio (10 mM glucose : 1 mM glucose) of A549 growth higher than WBC-A: ratio of IC50 on 10 mM and 1 mM glucose, compared to WBC-A
Description: For both adherent A549 and MCF10A H-RAS^V12 cell lines, growth curves were established using the IncuCyte® ZOOM technology. By collecting phase contrast images, the IncuCyte® software provides a calculated confluency percentage from which growth curves can be deducted. The cell number/density was measured by calculating the confluency of phase objects (cells) sticking on the bottom of the well. Cells were seeded at a density of 1000 - 1500 cells/well in a Nunc-Edge™ 96-well plate (Thermo Fisher Scientific) and growth was typically measured over 3 to 5 days. For the measurement of apoptosis induction using the MCF10A H-RAS^V12 cell line, the IncuCyte® Caspase-3/7 green dye was added to the medium in the recommended concentration at the beginning of the growth curve experiment. Apoptosis was detected by taking fluorescent images by excitation at 488 nm followed by IncuCyte® software analysis. Cell growth of the KMS-12-PE multiple myeloma cell line, which grows in suspension, was measured by manual cell counting. Cells were initially seeded at a density of 10^4 cells/well and incubated for 4 days after which the cell number was counted. For all cell lines, the same medium used for pregrowth was also used for the growth curve experiment, albeit with different glucose concentrations depending on the experimental design. With compound administration, the final concentration of DMSO never exceeded 0.1%. Typically, at least four technical repeats were included per condition.

[3] = tested on: hxk2Δ hxk1Δ GLK1 yeast cells; assay: Sugar uptake in hxk2Δ hxk1Δ GLK1 yeast cells; format: cell-based, S. cerevisiae; settings: 250 µM CCCP or 50 µM WBC-A 10 min prior; 100 mM maltose with the tracer
Description: as §1

[4] = tested on: glucose uptake by wild type yeast cells; assay: Zero-trans uptake of radioactive glucose in wild type yeast cells; format: cell-based, S. cerevisiae
Description: as §1

| SMILES | Rescue of the tps1∆ strain on 2.5 mM glucose at 100 µM (yeast tps1Δ strain) | Minimal rescue concentration for growth of tps1∆ cells on 2.5 mM glucose (yeast tps1Δ strain) [µM] | IC50 [1] [µM] | Selected from primary screen for growth inhibition of A549 cells at 50 µM ([2]; 50 µM) | Selected for having an IC50 ratio (10 mM glucose : 1 mM glucose) of A549 growth higher than WBC-A [2] | fructose uptake at tracer concentration [3] | glucose uptake at tracer concentration [3] | type of inhibition of glucose uptake (Lineweaver-Burk) [4] | IC50 ([4]; radioactive glucose, 10 s, read-out: IC50 for inhibition of 2.5 mM glucose uptake) [µM] | Ki ([4]; read-out: Ki (Dixon plot) for glucose uptake) [µM] | inhibition of A549 cell proliferation in prescreening ([2]; 50 µM, 1 mM glucose, three days) |
| --- | --- | --- | --- | --- | --- | --- | --- | --- | --- | --- | --- |
| COC(=O)CSc1nc(C)nc2scc(-c3cccs3)c12 [WBC-53A] | Yes | 12.5 | 26.8 | No | – | – | – | – | – | – | – |
| Cc1nc(Sc2nnc(C(F)(F)F)n2C)c2c(-c3cccs3)csc2n1 [WBC-54C] | Yes | 50 | 64.7 | Yes | Lower IC50 ratio | – | – | – | – | – | – |
| Cc1nc(SCCN2CCOCC2)c2c(-c3cccs3)csc2n1 [WBC-44A] | Yes | 50 | 61.8 | Yes | Lower IC50 ratio | – | – | – | – | – | – |
| Cc1nc(Sc2nnc(-c3cccnc3)n2C)c2c(-c3cccs3)csc2n1 [WBC-23A] | Yes | 25 | 8.6 | Yes | Lower IC50 ratio | – | – | – | – | – | – |
| Cc1nc(SCCO)c2c(-c3cccs3)csc2n1 [WBC-47A] | Yes | 6.25 | 15.6 | Yes | Lower IC50 ratio | – | – | – | – | – | – |
| Cc1nc(SCC(=O)N(C)CCC#N)c2c(-c3cccs3)csc2n1 [WBC-7B] | Yes | 6.25 | 5.41 | No | – | – | – | – | – | – | – |
| Cc1nc(SCCN2CCOC2=O)c2c(-c3cccs3)csc2n1 [WBC-26C] | Yes | 25 | 23.8 | No | – | – | – | – | – | – | – |
| Cc1nc(SCC(=O)NC(C)(C)C)c2c(-c3cccs3)csc2n1 [WBC-32B] | Yes | 12.5 | 30.3 | Yes | Lower IC50 ratio | – | – | – | – | – | – |
| Cc1nc(Sc2nnc(-c3ccncc3)n2C)c2c(-c3cccs3)csc2n1 [WBC-26A] | Yes | 25 | 5.35 | Yes | Lower IC50 ratio | – | – | – | – | – | – |
| Cc1nc(SCC(N)=O)c2c(-c3cccs3)csc2n1 [WBC-14A] | Yes | 25 | 27.9 | No | – | – | – | – | – | – | – |
| Cc1nc(SCC(=O)NC(N)=O)c2c(-c3cccs3)csc2n1 [WBC-6B] | Yes | 12.5 | 10.2 | Yes | Lower IC50 ratio | – | – | – | – | – | – |
| Cc1nc(SCC(=O)N2CC(C)OC(C)C2)c2c(-c3cccs3)csc2n1 (centres unmarked) [WBC-5B] | Yes | 12.5 | 22.5 | No | – | – | – | – | – | – | – |
| N#CC(C#N)=NNc1cccc(Cl)c1 [CCCP, reference compound] | – | – | – | – | – | not that of fructose | lowered the glucose uptake rate | – | – | – | – |
| CCn1c(CCC(N)=O)nnc1Sc1nc(C)nc2scc(-c3cccs3)c12 [WBC-16C] | Yes | 50 | 49.6 | Yes | Lower IC50 ratio | – | – | – | – | – | – |
| CCCc1nnc(Sc2nc(C)nc3scc(-c4cccs4)c23)[nH]1 [WBC-50C] | Yes | 50 | 67.8 | Yes | Lower IC50 ratio | – | – | – | – | – | – |
| COCCCNC(=O)CSc1nc(C)nc2scc(-c3cccs3)c12 [WBC-15B] | Yes | 25 | 32.7 | No | – | – | – | – | – | – | – |
| Cc1nc(SCC(=O)Nc2cc(C)on2)c2c(-c3cccs3)csc2n1 [WBC-10C] | Yes | 6.25 | 24.8 | Yes | Lower IC50 ratio | – | – | – | – | – | – |
| CCN(C(=O)CSc1nc(C)nc2scc(-c3cccs3)c12)C1CCS(=O)(=O)C1 (centres unmarked) [WBC-2C] | Yes | 1.562 | 2 | Yes | Lower IC50 ratio | – | – | mixed type of inhibition | 1.98 | 1.45 | – |
| Cc1nc(Sc2nnc3n2CCC(CN=[N+]=[N-])CC3)c2c(-c3cccs3)csc2n1 (centres unmarked) [WBC-87C] | Yes | 12.5 | 11.1 | Yes | Lower IC50 ratio | – | – | – | – | – | – |
| C=C1[C@@H](C)[C@H]2[C@H](Cc3ccccc3)NC(=O)[C@]23OC(=O)/C=C/[C@H](O)CCC[C@@H](C)C/C=C/[C@H]3[C@@H]1O [Cytochalasin B, reference compound] | – | – | – | – | – | – | – | – | – | – | the strongest inhibitor of cell proliferation in this assay |
| CCn1c(Sc2nc(C)nc3scc(-c4cccs4)c23)nnc1-c1ccncc1 [WBC-43C] | Yes | 12.5 | 8.93 | Yes | – | – | – | – | – | – | – |
| CC(=O)NCc1ccc(C(=O)CSc2nc(C)nc3scc(-c4cccs4)c23)o1 [WBC-29B] | Yes | 6.25 | 9.23 | No | – | – | – | – | – | – | – |
